Experiment [1] addresses Ion channel NompC (Danio rerio, UniProt Q7T1G6). In words: Fluorescence counterscreen assay for TRPML3 agonists: dose response cell-based high-throughput screening assay to identify agonists of the transient receptor potential channel N1 (TRPN1). [Related pubchem assays: 1526, 1424, 1448 ]. Format: functional. On the technique in general: The purpose of a counterscreen is to sort out artefacts and off-target activity.

For experiment [2], the target named is T1, Cannabinoid receptor 1 (Homo sapiens, UniProt P21554). Briefly: SAR analysis of agonists of the Cannabinoid Receptor 1 using an Image-Based Assay - Set 2. [Related pubchem assays (depositor defined):AID2013, AID2026]. Format: functional.
T1 sequence (P21554 whole entry): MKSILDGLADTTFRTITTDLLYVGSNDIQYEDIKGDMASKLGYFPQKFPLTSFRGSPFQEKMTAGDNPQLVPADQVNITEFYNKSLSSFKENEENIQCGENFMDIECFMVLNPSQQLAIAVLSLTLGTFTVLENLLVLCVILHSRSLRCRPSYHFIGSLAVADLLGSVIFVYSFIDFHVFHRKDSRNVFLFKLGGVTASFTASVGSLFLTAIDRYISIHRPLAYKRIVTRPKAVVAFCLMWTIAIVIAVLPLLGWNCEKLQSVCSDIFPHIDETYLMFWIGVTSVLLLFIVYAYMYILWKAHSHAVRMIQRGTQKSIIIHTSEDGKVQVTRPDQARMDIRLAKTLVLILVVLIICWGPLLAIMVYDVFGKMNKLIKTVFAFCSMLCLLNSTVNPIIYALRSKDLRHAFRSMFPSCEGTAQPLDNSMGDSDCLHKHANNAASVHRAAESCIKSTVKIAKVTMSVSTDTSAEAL
Experiment [3] has as its target T2, G-protein coupled receptor 55 (Homo sapiens, UniProt Q9Y2T6). Briefly: inhibition of LPI-stimulated GPR55 beta-arrestin translocation – imaging, U2OS, beta-arrestin-GFP, LPI agonist, primary screen (AID 2013).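 Also: antagonist potency measured as reduced agonist-driven arrestin aggregation.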 Format: functional.
The target of experiment [4] is Mucolipin-3 (Homo sapiens, UniProt Q8TDD5). Briefly: Dose response cell-based high-throughput screening assay for agonists of the transient receptor potential channel ML3 (TRPML3). [Related pubchem assays: 1526, 1424, 1448 ]. Format: functional.
Sequence of Mucolipin-3 (Q8TDD5 whole entry): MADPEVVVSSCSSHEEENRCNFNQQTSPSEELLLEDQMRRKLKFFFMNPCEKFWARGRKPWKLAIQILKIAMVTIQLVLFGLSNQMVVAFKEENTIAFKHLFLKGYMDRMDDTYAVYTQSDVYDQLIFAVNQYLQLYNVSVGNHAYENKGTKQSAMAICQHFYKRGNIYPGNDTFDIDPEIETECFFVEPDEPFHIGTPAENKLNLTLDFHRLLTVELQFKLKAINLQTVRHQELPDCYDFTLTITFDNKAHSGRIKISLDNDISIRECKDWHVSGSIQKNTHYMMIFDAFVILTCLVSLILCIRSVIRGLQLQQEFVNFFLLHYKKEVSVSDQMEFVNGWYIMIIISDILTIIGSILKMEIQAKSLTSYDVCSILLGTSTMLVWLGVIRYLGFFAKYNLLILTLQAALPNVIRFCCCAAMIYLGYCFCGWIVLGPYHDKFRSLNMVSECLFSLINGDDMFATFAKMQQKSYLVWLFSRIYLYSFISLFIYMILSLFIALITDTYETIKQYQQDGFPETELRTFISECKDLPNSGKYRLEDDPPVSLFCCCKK
In experiment [5] the target is T3, Cannabinoid receptor 2 (Homo sapiens, UniProt P34972). Briefly: SAR analysis of antagonists of the Cannabinoid Receptor 2 using an Image-Based Assay. [Related pubchem assays (depositor defined):AID2013, AID2026]. The format is functional.
T3 sequence (P34972 whole entry): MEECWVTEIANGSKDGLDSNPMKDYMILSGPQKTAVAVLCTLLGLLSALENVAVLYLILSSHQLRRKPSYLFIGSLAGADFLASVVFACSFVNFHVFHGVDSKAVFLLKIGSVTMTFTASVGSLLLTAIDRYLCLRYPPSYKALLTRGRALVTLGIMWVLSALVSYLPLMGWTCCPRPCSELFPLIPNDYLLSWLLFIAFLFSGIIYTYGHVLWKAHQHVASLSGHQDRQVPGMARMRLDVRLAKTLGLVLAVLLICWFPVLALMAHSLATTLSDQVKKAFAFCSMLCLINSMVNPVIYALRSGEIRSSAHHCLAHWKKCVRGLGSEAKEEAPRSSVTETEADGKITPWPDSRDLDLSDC
Experiment [6] concerns the target T2, G-protein coupled receptor 55. In words: blockade of LPI-induced GPR55 arrestin translocation – imaging, U2OS, beta-arrestin-GFP, LPI agonist, set 2, SAR follow-up (AID 2820). The format is functional.
Experiment [7] concerns the target T4, G-protein coupled receptor 35 (Homo sapiens, UniProt Q9HC97). Briefly: SAR analysis of Antagonists of the GPR35 Receptor using an Image-Based Assay - Set 3. [Related pubchem assays (depositor defined):AID2013, AID2026]. Format: functional.
In experiment [8] the target is T4, G-protein coupled receptor 35. In words: SAR analysis of Agonists of the GPR35 Receptor using an Image-Based Assay - Set 2. [Related pubchem assays (depositor defined):AID2013, AID2026]. The format is functional.
The target in experiment [9] is T1, Cannabinoid receptor 1. In words: SAR analysis of antagonists of the Cannabinoid Receptor 1 using an Image-Based Assay - Set 2. [Related pubchem assays (depositor defined):AID2013, AID2026]. The format is functional.
Experiment [10] deals with T3, Cannabinoid receptor 2. Briefly: SAR analysis of agonists of the Cannabinoid Receptor 2 using an Image-Based Assay. [Related pubchem assays (depositor defined):AID2013, AID2026]. The format is functional.
A short description of experiment [11]: Luminescence Cell-Based Dose Response HTS to Identify Inhibitors of Luciferase Translation or Activity in H4-C Neuroglioblastoma Cells. [Related pubchem assays: 1813 (Primary HTS), 1827 (Project Summary)]. The format is functional.
Experiment [12] is described as follows: Luminescence Cell-Based Dose Response HTS to Identify Activators of Luciferase Translation or Activity in H4-C Neuroglioblastoma Cells. [Related pubchem assays: 1829 (Project Summary), 1814 (Primary HTS)]. The format is functional.
In experiment [13] the test system is BJ. In words: growth inhibition of engineered Ras-driven BJ cells – cell-based, alamar blue fluorescence, cherrypicked samples, dose response (AID 2631).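 Also: confirmatory dose-response assay in RAS-dependent BJ fibroblasts engineered with TERT, LT and ST, with cytotoxicity read by fluorescence.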 Format: functional. Conditions: Homo sapiens.
Experiment [14] in a line: cells. Format: functional, cell-based.
The target in experiment [15] is T5, Nuclear receptor subfamily 0 group B member 1 (Homo sapiens, UniProt P51843).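 Also: HEK293T cells transfected with SF-1 and DAX-1 plus StAR promoter luciferase reporter.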
T5 sequence (P51843 whole entry): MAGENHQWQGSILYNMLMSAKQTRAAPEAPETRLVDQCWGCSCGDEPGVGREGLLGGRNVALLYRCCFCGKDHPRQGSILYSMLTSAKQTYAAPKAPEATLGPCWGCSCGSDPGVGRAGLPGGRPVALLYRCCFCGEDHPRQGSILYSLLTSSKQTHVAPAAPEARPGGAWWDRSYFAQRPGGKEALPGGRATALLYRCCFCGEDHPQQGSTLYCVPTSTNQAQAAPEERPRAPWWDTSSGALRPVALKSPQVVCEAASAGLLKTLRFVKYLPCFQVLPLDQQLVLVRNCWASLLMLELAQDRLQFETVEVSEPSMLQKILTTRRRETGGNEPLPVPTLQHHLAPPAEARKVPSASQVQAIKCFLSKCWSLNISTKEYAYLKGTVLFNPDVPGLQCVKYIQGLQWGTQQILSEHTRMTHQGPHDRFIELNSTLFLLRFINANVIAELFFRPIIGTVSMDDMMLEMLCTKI
The format is functional, cell-based.

Experiment [16] can be described thus: Luminescence Cell-Based Dose HTS Response to Identify Inhibitors of 5'UTR Stem-Loop Driven Prion Protein mRNA Translation in H4-C Neuroglioblastoma Cells. [Related pubchem assays (depositor defined):AID1814, AID1827]. Format: functional.
A short description of experiment [17]: Luminescence Cell-Based Dose Response HTS to Identify Activators of 5'UTR Stem-Loop Driven Prion Protein mRNA Translation in H4-C Neuroglioblastoma Cells. [Related pubchem assays: 1829 (Project Summary), 1814 (Primary HTS)]. The format is functional.
Experiment [18] deals with BJ. In words: BJ-TERT-LT-ST fibroblast viability loss – cell-based, RAS-independent, luminescence, dose response (AID 1935).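 Also: BJ fibroblasts immortalized with TERT plus LT and ST oncogenes.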 Format: functional. Conditions: Homo sapiens.
The subject of experiment [19] is BJ. Briefly: cells. The format is functional, cell-based. The following applies: Homo sapiens.
Experiment [20] can be described thus: Luminescence Cell-Based Dose Confirmation HTS to Identify Inhibitors of 5'UTR Stem-Loop Driven Alpha-Synuclein mRNA Translation in H4 Neuroglioblastoma Cells. [Related pubchem assays: 1827 (Project Summary), 1813 (Primary HTS)]. The format is functional.
Experiment [21] in a line: DRD fibroblast viability loss – cell-based, non-viral oncogenic, luminescence, dose response (AID 1934). Format: functional. Conditions: Homo sapiens.
Experiment [22] is described as follows: alpha-synuclein stem-loop luciferase translation blockers – H4 neuroglioma cells, luminescence, confirmation (AID 1988). Format: functional, cell-based.
For experiment [23], the system named is BJ. Briefly: BJ-TERT fibroblast viability loss – cell-based, RAS-independent, luminescence, dose response (AID 1933). Format: functional. The following applies: Homo sapiens.
Experiment [24] can be described thus: Luminescence Cell-Based Dose Response HTS to Identify Inhibitors of 5'UTR Stem-Loop Driven Prion Protein mRNA Translation in H4 Neuroglioblastoma Cells. [Related pubchem assays: 1827 (Project Summary), 1813 (Primary HTS)]. The format is functional.
The target in experiment [25] is T6, Calpain-2 catalytic subunit (Sus scrofa, UniProt P43367).
T6 sequence (P43367 whole entry): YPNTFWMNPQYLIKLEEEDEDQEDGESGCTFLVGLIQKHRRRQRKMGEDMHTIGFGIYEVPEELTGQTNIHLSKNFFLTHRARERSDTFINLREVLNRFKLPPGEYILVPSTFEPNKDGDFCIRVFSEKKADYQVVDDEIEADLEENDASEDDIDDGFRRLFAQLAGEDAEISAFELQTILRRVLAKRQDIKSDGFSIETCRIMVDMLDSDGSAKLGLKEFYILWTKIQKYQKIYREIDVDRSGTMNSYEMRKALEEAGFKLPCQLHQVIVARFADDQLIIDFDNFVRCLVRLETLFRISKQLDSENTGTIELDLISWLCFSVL
In words: m-calpain protease blockers, concentration series – biochemical, fluorogenic peptide substrate, dose response (AID 1420). Format: functional.

Experiment [26] addresses Tyrosine-protein phosphatase non-receptor type 7 (Homo sapiens, UniProt P35236). Format: functional.
For experiment [27], the target named is T7, Tyrosine-protein phosphatase non-receptor type 22 (Homo sapiens, UniProt Q9Y2R2). The format is functional.
T7 sequence (Q9Y2R2 whole entry): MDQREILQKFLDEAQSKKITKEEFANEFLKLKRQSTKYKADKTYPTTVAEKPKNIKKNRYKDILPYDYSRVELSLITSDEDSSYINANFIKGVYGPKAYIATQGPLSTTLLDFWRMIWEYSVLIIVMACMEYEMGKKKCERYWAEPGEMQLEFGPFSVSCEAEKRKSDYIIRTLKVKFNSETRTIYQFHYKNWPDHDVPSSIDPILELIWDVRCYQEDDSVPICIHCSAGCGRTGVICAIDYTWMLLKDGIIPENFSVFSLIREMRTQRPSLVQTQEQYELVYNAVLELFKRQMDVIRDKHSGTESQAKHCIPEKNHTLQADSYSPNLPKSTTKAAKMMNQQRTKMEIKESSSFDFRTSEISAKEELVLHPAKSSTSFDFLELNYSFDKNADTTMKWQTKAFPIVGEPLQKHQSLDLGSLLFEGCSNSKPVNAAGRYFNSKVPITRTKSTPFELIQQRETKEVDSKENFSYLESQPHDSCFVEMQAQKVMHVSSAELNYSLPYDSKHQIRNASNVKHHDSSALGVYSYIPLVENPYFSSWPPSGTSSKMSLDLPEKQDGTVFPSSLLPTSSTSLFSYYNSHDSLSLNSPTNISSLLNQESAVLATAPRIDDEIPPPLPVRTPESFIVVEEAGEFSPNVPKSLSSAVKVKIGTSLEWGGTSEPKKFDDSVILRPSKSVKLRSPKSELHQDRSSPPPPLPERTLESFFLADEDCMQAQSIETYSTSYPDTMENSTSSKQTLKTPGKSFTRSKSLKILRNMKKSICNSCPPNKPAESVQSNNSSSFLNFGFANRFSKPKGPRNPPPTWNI
Experiment [28] addresses T7, Tyrosine-protein phosphatase non-receptor type 22. The format is functional. The source holds these as a separate data set.

Calls of active or inactive are those of the source.

As usually defined, the EC50 is the concentration needed to bring the measured effect to its halfway point. As usually defined, the IC50 is the concentration that gives 50% inhibition.

T2 sequence (Q9Y2T6 whole entry): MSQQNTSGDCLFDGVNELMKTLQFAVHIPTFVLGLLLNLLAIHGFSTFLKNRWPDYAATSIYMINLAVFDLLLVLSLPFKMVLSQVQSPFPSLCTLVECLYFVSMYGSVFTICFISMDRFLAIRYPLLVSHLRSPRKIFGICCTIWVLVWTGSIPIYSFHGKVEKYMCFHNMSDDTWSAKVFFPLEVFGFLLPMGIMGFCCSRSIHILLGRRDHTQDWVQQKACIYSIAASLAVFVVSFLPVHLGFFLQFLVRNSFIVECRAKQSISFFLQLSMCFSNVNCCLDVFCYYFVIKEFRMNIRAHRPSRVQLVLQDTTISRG
T4 sequence (Q9HC97 whole entry): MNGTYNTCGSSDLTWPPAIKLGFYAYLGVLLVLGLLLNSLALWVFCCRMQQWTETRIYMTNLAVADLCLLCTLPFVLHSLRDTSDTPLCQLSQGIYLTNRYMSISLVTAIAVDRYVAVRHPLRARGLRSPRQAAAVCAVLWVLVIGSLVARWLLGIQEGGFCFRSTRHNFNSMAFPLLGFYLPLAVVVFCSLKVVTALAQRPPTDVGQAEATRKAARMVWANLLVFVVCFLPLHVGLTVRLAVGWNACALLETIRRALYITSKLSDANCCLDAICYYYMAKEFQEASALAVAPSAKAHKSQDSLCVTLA
Sequence of Ion channel NompC (Q7T1G6 whole entry): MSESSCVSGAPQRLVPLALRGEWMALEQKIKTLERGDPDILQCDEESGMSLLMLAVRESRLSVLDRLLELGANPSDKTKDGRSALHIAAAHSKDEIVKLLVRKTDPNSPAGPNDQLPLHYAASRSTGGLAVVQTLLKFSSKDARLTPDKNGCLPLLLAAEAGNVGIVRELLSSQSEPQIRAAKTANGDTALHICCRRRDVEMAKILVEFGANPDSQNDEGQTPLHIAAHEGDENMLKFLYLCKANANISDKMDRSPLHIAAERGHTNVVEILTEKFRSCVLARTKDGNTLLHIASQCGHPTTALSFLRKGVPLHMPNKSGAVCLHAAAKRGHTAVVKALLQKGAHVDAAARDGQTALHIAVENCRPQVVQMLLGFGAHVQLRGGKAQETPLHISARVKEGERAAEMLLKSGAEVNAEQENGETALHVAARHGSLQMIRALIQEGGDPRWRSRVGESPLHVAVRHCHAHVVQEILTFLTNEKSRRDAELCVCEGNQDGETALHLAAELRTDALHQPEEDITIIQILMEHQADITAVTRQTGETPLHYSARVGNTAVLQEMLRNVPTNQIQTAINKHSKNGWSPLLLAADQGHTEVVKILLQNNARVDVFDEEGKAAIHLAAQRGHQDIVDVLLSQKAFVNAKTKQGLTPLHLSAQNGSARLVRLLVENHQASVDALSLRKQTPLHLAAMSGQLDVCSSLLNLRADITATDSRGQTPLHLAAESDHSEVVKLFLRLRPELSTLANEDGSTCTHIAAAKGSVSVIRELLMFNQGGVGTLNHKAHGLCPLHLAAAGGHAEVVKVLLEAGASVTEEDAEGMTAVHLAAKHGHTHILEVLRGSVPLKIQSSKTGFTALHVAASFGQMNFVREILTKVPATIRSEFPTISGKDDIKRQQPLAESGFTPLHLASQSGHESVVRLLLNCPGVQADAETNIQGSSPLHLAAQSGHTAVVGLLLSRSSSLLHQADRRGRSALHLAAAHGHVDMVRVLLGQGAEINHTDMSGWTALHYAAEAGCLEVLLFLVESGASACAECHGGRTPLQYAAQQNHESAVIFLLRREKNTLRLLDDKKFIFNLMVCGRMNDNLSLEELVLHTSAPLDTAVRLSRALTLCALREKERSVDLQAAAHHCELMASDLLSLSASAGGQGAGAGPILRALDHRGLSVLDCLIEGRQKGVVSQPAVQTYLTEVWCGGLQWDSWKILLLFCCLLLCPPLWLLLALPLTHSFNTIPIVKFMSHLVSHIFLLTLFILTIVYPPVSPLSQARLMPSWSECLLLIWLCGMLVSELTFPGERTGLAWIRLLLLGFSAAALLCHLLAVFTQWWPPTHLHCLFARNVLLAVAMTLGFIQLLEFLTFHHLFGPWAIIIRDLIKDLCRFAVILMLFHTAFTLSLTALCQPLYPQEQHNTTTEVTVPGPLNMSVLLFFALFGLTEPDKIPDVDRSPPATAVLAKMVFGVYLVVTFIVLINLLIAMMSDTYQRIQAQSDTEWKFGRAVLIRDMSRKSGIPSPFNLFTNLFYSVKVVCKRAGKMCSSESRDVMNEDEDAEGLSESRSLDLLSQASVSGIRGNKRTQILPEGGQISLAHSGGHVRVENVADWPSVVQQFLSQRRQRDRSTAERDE
Sequence of Tyrosine-protein phosphatase non-receptor type 7 (P35236 whole entry): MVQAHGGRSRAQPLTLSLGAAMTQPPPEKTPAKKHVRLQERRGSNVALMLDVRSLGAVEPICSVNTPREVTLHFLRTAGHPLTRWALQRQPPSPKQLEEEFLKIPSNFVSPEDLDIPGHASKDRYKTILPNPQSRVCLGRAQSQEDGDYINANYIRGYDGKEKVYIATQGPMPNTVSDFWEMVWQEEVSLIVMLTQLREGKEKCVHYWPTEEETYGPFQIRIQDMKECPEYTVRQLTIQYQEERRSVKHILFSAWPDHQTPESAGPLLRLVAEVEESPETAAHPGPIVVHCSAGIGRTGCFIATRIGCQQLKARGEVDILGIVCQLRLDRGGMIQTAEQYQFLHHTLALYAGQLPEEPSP

Regarding `COc1ccc(S(=O)(=O)Nc2ccc(C)cc2)cc1N(C)S(=O)(=O)c1ccc(Cl)cc1`, the EC50 in experiment [1] was > 29.9 µM (not active); in experiment [2], > 32 µM (inactive); in experiment [4] it was 6.67 µM (active); in experiment [8], > 32 µM (inactive); in experiment [10], > 32 µM (inactive). Besides, the half-maximal inhibitory concentration (IC50) is 1.8 µM (active) in experiment [3]; > 32 µM (inactive) in experiment [5]; 0.992 µM (active) in experiment [6]; > 32 µM (inactive) in [7]; 5.95 µM (active) in experiment [9].
Regarding `CCc1ccc(CNC(=O)Cc2ccc(NC(=O)C3=C(C)OCCS3)cc2)cc1`, the concentration giving a half-maximal response (EC50) in experiment [11] was 51.1 µM (active); in [12] it was 51.1 µM (inconclusive); in [13] it was 0.379 µM (active); in experiment [16], 0.592 µM (active); in [17] it was 0.592 µM (inconclusive); in experiment [18] it was 3.01 µM (active). In addition, the EC50 in [19] is 23.3 µM (active); in experiment [20], > 195 µM (not active); in experiment [21], 10.7 µM (inconclusive); in experiment [22], 0.899 µM (active); in [23], 7.66 µM (inconclusive); in experiment [24], 104 µM (active). In addition, the IC50 in experiment [14] and in [15] was > 67.5 µM (inactive) throughout.
With `O=C(Nc1ccc(Cl)cc1)c1ccc(OC2CSC2)cc1`, the IC50 in experiment [25] is 16.7 µM (not active); in experiment [26], > 79.4 µM (inactive); in experiment [27], > 79.4 µM (inactive); in [28], > 79.4 µM (inactive).

The record behind these values is ChEMBL document CHEMBL1201862, “PubChem BioAssay data set” (2004).
